Data from BigSolDB 2.1.

O=C(O)[C@@H]1Cc2ccccc2N1
Conditions	solubility (mole fraction)
in ethanol, 283.15 K	0.00168
in ethanol, 288.15 K	0.00216
in ethanol, 292.85 K	0.00284
in ethanol, 298.25 K	0.00358
in ethanol, 303.05 K	0.00454
in ethanol, 308.15 K	0.00572
in ethanol, 313.45 K	0.00721
in ethanol, 318.55 K	0.00895
in ethanol, 323.35 K	0.0107
in ethanol, 328.75 K	0.0138
in ethanol, 333.25 K	0.0159
in ethanol, 338.25 K	0.0186
in ethanol, 343.15 K	0.022
in isopropanol, 283.15 K	0.000941
in isopropanol, 288.15 K	0.0015
in isopropanol, 293.25 K	0.00197
in isopropanol, 298.15 K	0.0028
in isopropanol, 303.35 K	0.00387
in isopropanol, 307.95 K	0.00504
in isopropanol, 313.05 K	0.00685
in isopropanol, 318.65 K	0.0093
in isopropanol, 323.55 K	0.0109
in isopropanol, 328.35 K	0.0144
in isopropanol, 333.15 K	0.0169
in isopropanol, 338.35 K	0.0202
in isopropanol, 343.05 K	0.0241
in isopropanol, 348.75 K	0.0299
in isopropanol, 353.15 K	0.0369
in methanol, 283.15 K	0.00436
in methanol, 288.25 K	0.00543
in methanol, 292.75 K	0.00647
in methanol, 298.15 K	0.00809
in methanol, 302.95 K	0.0103
in methanol, 308.05 K	0.0122
in methanol, 313.15 K	0.0145
in methanol, 318.25 K	0.0166
in methanol, 323.15 K	0.019
in methanol, 328.55 K	0.0201
in methanol, 333.15 K	0.026
in n-butanol, 283.15 K	0.00228
in n-butanol, 288.35 K	0.00316
in n-butanol, 293.05 K	0.00395
in n-butanol, 298.25 K	0.00481
in n-butanol, 303.55 K	0.00592
in n-butanol, 308.05 K	0.00708
in n-butanol, 313.65 K	0.0083
in n-butanol, 318.45 K	0.0102
in n-butanol, 323.25 K	0.0111
in n-butanol, 328.05 K	0.0131
in n-butanol, 332.95 K	0.0144
in n-butanol, 338.15 K	0.0162
in n-butanol, 343.55 K	0.0186
in n-butanol, 348.95 K	0.0217
in n-butanol, 353.05 K	0.0237
in n-butanol, 358.15 K	0.0268
in n-propanol, 283.15 K	0.000819
in n-propanol, 288.25 K	0.00105
in n-propanol, 293.05 K	0.00153
in n-propanol, 298.35 K	0.00211
in n-propanol, 303.15 K	0.00284
in n-propanol, 308.45 K	0.0039
in n-propanol, 313.15 K	0.00502
in n-propanol, 318.75 K	0.00673
in n-propanol, 323.25 K	0.00835
in n-propanol, 328.15 K	0.0107
in n-propanol, 333.05 K	0.0135
in n-propanol, 338.15 K	0.0167
in n-propanol, 343.55 K	0.0214
in n-propanol, 348.65 K	0.0261
in n-propanol, 353.15 K	0.0304
in n-propanol, 358.15 K	0.0397
in water, 283.15 K	0.000308
in water, 288.35 K	0.000309
in water, 292.25 K	0.000316
in water, 297.45 K	0.000322
in water, 302.15 K	0.000335
in water, 308.55 K	0.000365
in water, 313.15 K	0.000401
in water, 318.25 K	0.00046
in water, 323.45 K	0.000547
in water, 328.65 K	0.000673
in water, 333.15 K	0.000825
in water, 338.55 K	0.00108
in water, 342.95 K	0.00138
in water, 348.75 K	0.00196
in water, 353.15 K	0.0026
in water, 358.15 K	0.00366
